21 compounds from US10087188B2, “Benzamide imidazopyrazine Btk inhibitors” (MERCK SHARP & DOHME CORP., priority 2014, dated 2018) can be followed below.

Where two headings read alike, the source gives them in different places.

The test system of one assay is HeLa cells. In words: [3H] Adenosine uptake assay. It is filed as cell-based. Particulars: accumulation of tritiated adenosine into HeLa cells, compound concentration range 10 μM to 0.032 nM, read-out: ADU inhibition IC50 (adenosine uptake inhibition potency). An outline of the steps:
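HeLa cells in HBSS + 5% FBS preincubated 30 min at ambient temperature with compound (0.25% DMSO), then [3H]adenosine (500 nM stock) added for 60 min. Uptake measured by scintillation proximity counting; IC50 from 4-parameter fit of counts vs log concentration.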

In assay [1] the target is BTK enzyme (recombinant full-length BTK, hBTK) (Homo sapiens (Human), UniProt Q06187). In words: Btk enzyme activity assay, LANCE TR-FRET. It is filed as biochemical. As to conditions: 50 pM hBTK, 2 μM biotin-A5-peptide, 25 μM ATP; 60 minute compound & enzyme incubation; read-out: BTK binding IC50. How it is done: Btk Enzyme Activity Assay Methods
BTK enzymatic activity was determined with the LANCE (Lanthanide Chelate Excite) TR-FRET (Time-resolved fluorescence resonance energy transfer) assay. […] After 60 minutes incubation with detection reagents, reaction plates were read on a PerkinElmer EnVision plate reader using standard TR-FRET protocol.
For orientation: TR-FRET usually uses a lanthanide donor and a delayed reading to cut background.

As usually defined, the IC50 is the concentration at which inhibition is half-maximal.

Chain of BTK enzyme (recombinant full-length BTK, hBTK) (Q06187 whole entry): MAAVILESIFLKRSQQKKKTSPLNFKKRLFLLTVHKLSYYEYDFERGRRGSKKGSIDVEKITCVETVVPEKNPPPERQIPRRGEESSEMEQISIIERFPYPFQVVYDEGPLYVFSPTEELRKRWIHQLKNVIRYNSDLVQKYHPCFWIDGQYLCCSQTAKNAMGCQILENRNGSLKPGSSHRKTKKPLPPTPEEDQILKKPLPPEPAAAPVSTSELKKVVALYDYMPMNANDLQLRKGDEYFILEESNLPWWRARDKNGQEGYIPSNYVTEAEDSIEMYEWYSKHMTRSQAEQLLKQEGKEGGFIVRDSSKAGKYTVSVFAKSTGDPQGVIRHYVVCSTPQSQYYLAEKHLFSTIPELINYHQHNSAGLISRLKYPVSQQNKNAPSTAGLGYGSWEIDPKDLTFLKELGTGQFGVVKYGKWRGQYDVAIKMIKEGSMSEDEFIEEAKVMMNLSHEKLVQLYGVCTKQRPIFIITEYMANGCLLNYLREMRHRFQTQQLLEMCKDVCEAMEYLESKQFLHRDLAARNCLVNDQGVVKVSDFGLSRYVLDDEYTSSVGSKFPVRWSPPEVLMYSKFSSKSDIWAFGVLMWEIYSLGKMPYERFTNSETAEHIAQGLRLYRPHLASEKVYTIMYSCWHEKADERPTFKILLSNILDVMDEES

For `CC1(C)[C@H](c2nc(-c3ccc(C(=O)Nc4cc(C(F)(F)F)ccn4)cc3Cl)c3c(N)nccn23)CC[C@]1(C)C(=O)O` [Example 129, (1S,3R)-3-[8-amino-1-(2-chloro-4-{[4-(trifluoromethyl)pyridin-2-yl]carbamoyl}phenyl)imidazo[1,5-a]pyrazin-3-yl]-1,2,2-trimethylcyclopentane carboxylic acid], the 50% inhibitory concentration (IC50) with HeLa cells (Homo sapiens, HeLa) was 5200 nM; in assay [1] it was 0.59 nM.
Take `CCOc1cc(C(=O)Nc2cc(C3CC3)ccn2)cc(F)c1-c1nc(C2(C)CCC(C)(C(=O)O)CC2)n2ccnc(N)c12` (stereo not drawn) [Example 131, 4-(8-amino-1-{4-[(4-cyclopropylpyridin-2-yl)carbamoyl]-2-ethoxy-6-fluorophenyl}imidazo [1,5-a]pyrazin-3-yl)-1,4-dimethylcyclohexane-carboxylic acid]: the IC50 in the assay on HeLa cells (Homo sapiens, HeLa) was 10000 nM; in assay [1], 0.75 nM.
`C[C@@]1(C(=O)O)CC[C@@](C)(c2nc(-c3ccc(C(=O)Nc4cc(C(F)(F)F)ccn4)cc3Cl)c3c(N)nccn23)C1` [Example 132, (1R,3R)-3-[8-amino-1-(2-chloro-4-{[4-(trifluoromethyl)pyridin-2-yl]carbamoyl}phenyl)imidazo[1,5-a]pyrazin-3-yl]-1,3-dimethylcyclopentane carboxylic acid]: the IC50 turned out to be 3160 nM in the assay with HeLa cells (Homo sapiens, HeLa) and 0.25 nM in assay [1].
In the same order, the values of `CC1(C(=O)O)CCC(C)(c2nc(-c3ccc(C(=O)Nc4cc(C(F)(F)F)ccn4)cc3Cl)c3c(N)nccn23)CC1` (stereo not drawn) [Example 133, 4-[8-amino-1-(2-chloro-4-{[4-(trifluoromethyl)pyridin-2-yl]carbamoyl}phenyl)imidazo[1,5-a]pyrazin-3-yl]-1,4-dimethylcyclohexane-carboxylic acid] are 5230 nM and 1 nM.
On to `CC1(C(=O)O)CCC(C)(c2nc(-c3ccc(C(=O)Nc4cc(C(F)(F)F)ccn4)cc3F)c3c(N)nccn23)CC1` (stereo not drawn) [Example 134, 4-[8-amino-1-(2-fluoro-4-{[4-(trifluoromethyl)pyridin-2-yl]carbamoyl}phenyl)imidazo[1,5-a]pyrazin-3-yl]-1,4-dimethylcyclohexane-carboxylic acid], for which the concentration for half-maximal inhibition (IC50) in the assay with HeLa cells (Homo sapiens, HeLa) came out at 2770 nM; in assay [1], 0.5 nM.
Regarding `CCOc1cc(C(=O)Nc2cc(C(F)(F)F)ccn2)ccc1-c1nc([C@@H]2C[C@@H]3[C@H](C2)[C@H]3C(=O)O)n2ccnc(N)c12` [Example 135, (1R,3R,5S,6r)-3-[8-amino-1-(2-ethoxy-4-{[4-(trifluoromethyl)pyridin-2-yl]carbamoyl}phenyl)imidazo[1,5-a]pyrazin-3-yl]bicyclo[3.1.0] hexane-6-carboxylic acid], the IC50 with HeLa cells (Homo sapiens, HeLa) was determined as 6780 nM; in assay [1], 0.43 nM.
`C[C@@]1(C(=O)O)CC[C@@](C)(c2nc(-c3ccc(C(=O)Nc4cc(C(F)(F)F)ccn4)cc3F)c3c(N)nccn23)C1` [Example 136, (1R,3R)-3-[8-amino-1-(2-fluoro-4-{[4-(trifluoromethyl)pyridin-2-yl]carbamoyl}phenyl)imidazo[1,5-a]pyrazin-3-yl]-1,3-dimethylcyclopentane carboxylic acid]: the IC50 worked out at 3420 nM in the assay on HeLa cells (Homo sapiens, HeLa) and 0.17 nM in assay [1].
In the case of `C[C@@]1(C(=O)O)CCC[C@@](C)(c2nc(-c3ccc(C(=O)Nc4cc(C(F)(F)F)ccn4)cc3)c3c(N)nccn23)C1` [Example 137, (1R,3R)-3-[8-amino-1-(4-{[4-(trifluoromethyl)pyridin-2-yl]carbamoyl}phenyl)imidazo[1,5-a]pyrazin-3-yl]-1,3-dimethylcyclohexane-carboxylic acid], the IC50 turned out to be 3660 nM in the assay with HeLa cells (Homo sapiens, HeLa) and 0.9 nM in assay [1].
As to `C[C@@]1(C(=O)O)CCC[C@@](C)(c2nc(-c3ccc(C(=O)Nc4cc(C(F)(F)F)ccn4)cc3)c3c(N)nccn23)C1` [Example 138, (1R,3R)-3-[8-amino-1-(4-{[4-(trifluoromethyl)pyridin-2-yl]carbamoyl}phenyl)imidazo[1,5-a]pyrazin-3-yl]-1,3-dimethylcyclohexane-carboxylic acid], the IC50 in the assay on HeLa cells amounted to 6070 nM; in assay [1] it was 0.34 nM.
For `CC1(C)[C@H](C(=O)O)CC[C@]1(C)c1nc(-c2ccc(C(=O)Nc3cc(C(F)(F)F)ccn3)cc2)c2c(N)nccn12` [Example 141, (1R,3S)-3-[8-amino-1-(4-{[4-(trifluoromethyl)pyridin-2-yl]carbamoyl}phenyl)imidazo[1,5-a]pyrazin-3-yl]-2,2,3-trimethylcyclopentane carboxylic acid], the IC50 with HeLa cells (Homo sapiens, HeLa) is 2980 nM; in assay [1], 5.2 nM.
In the same order, the values of `CC1(C)[C@@H](C(=O)O)CC[C@@]1(C)c1nc(-c2ccc(C(=O)Nc3cc(C(F)(F)F)ccn3)cc2)c2c(N)nccn12` [Example 142, (1S,3R)-3-[8-amino-1-(4-{[4-(trifluoromethyl)pyridin-2-yl]carbamoyl}phenyl)imidazo[1,5-a]pyrazin-3-yl]-2,2,3-trimethylcyclopentane carboxylic acid] are 4320 nM and 1.2 nM.
On to `CC(C)C1(C(=O)O)CCC(C)(c2nc(-c3ccc(C(=O)Nc4cc(C(F)(F)F)ccn4)cc3)c3c(N)nccn23)C1` (stereo not drawn) [Example 143, 3-[8-amino-1-(4-{[4-(trifluoromethyl)pyridin-2-yl]carbamoyl}phenyl)imidazo[1,5-a]pyrazin-3-yl]-3-methyl-1-(1-methylethyl)cyclopentane-carboxylic acid], for which the IC50 in the assay with HeLa cells was 4010 nM; in assay [1] it was 0.72 nM.
Taken in the same sequence, the figures for `CC(C)C1(C(=O)O)CCC(C)(c2nc(-c3ccc(C(=O)Nc4cc(C(F)(F)F)ccn4)cc3)c3c(N)nccn23)C1` (stereo not drawn) [Example 144, 3-[8-amino-1-(4-{[4-(trifluoromethyl)pyridin-2-yl]carbamoyl}phenyl)imidazo[1,5-a]pyrazin-3-yl]-3-methyl-1-(1-methylethyl) cyclopentane-carboxylic acid] were 3010 nM and 2.5 nM.
Take `CC(C)C1(C(=O)O)CCC(C)(c2nc(-c3ccc(C(=O)Nc4cc(C(F)(F)F)ccn4)cc3)c3c(N)nccn23)C1` (stereo not drawn) [Example 145, 3-[8-amino-1-(4-{[4-(trifluoromethyl)pyridin-2-yl]carbamoyl}phenyl)imidazo[1,5-a]pyrazin-3-yl]-3-methyl-1-(1-methylethyl) cyclopentane-carboxylic acid]: the IC50 with HeLa cells came out at 10000 nM; in assay [1] it was 57.2 nM.
On to `CC(C)C1(C(=O)O)CCC(C)(c2nc(-c3ccc(C(=O)Nc4cc(C(F)(F)F)ccn4)cc3)c3c(N)nccn23)C1` (stereo not drawn) [Example 146, 3-[8-amino-1-(4-{[4-(trifluoromethyl)pyridin-2-yl]carbamoyl}phenyl)imidazo[1,5-a]pyrazin-3-yl]-3-methyl-1-(1-methylethyl) cyclopentane-carboxylic acid], for which the IC50 with HeLa cells was 10000 nM; in assay [1], 456 nM.
Regarding `CC1(C)[C@@H](C(=O)O)CC[C@]1(C)c1nc(-c2ccc(C(=O)Nc3cc(C(F)(F)F)ccn3)cc2)c2c(N)nccn12` [Example 147, (1S,3S)-3-[8-amino-1-(4-{[4-(trifluoromethyl)pyridin-2-yl]carbamoyl}phenyl)imidazo[1,5-a]pyrazin-3-yl]-2,2,3-trimethylcyclopentane carboxylic acid], the IC50 in the assay on HeLa cells (Homo sapiens, HeLa) was 10000 nM; in assay [1], 7 nM.
In the same order, the values of `CC1(C)[C@H](C(=O)O)CC[C@@]1(C)c1nc(-c2ccc(C(=O)Nc3cc(C(F)(F)F)ccn3)cc2)c2c(N)nccn12` [Example 148, (1R,3R)-3-[8-amino-1-(4-{[4-(trifluoromethyl)pyridin-2-yl]carbamoyl}phenyl)imidazo[1,5-a]pyrazin-3-yl]-2,2,3-trimethylcyclopentane carboxylic acid] are 10000 nM and 7.2 nM.
`CCOc1cc(C(=O)Nc2cc(C(F)(F)F)ccn2)c(F)cc1-c1nc(C23CCC(C(=O)O)(CC2)CC3)n2ccnc(N)c12` [Example 149, 4-[8-amino-1-(2-ethoxy-5-fluoro-4-{[4-(trifluoromethyl)pyridin-2-yl]carbamoyl}phenyl)imidazo[1,5-a]pyrazin-3-yl]bicyclo[2.2.2] octane-1-carboxylic acid]: the IC50 was 6870 nM in the assay with HeLa cells (Homo sapiens, HeLa) and 0.56 nM in assay [1].
Turning to `Nc1nccn2c([C@@H]3CCCN(C(=O)C4CC4C(=O)O)C3)nc(-c3ccc(C(=O)Nc4cc(C(F)(F)F)ccn4)cc3)c12` (stereo partly drawn) [Example 150, 2-({(3R)-3-[8-amino-1-(4-{[4-(trifluoromethyl)pyridin-2-yl]carbamoyl}phenyl)imidazo[1,5-a]pyrazin-3-yl]piperidin-1-yl}carbonyl) cyclopropane-carboxylic acid], the IC50 was found to be 6650 nM with HeLa cells (Homo sapiens, HeLa) and 1.3 nM in assay [1].
Taken in the same sequence, the figures for `Nc1nccn2c(C34CCC(C(=O)O)(CC3)CC4)nc(-c3ccc(C(=O)Nc4cc(C(F)(F)F)ccn4)cc3Cl)c12` [Example 151, 4-[8-amino-1-(2-chloro-4-{[4-(trifluoromethyl)pyridin-2-yl]carbamoyl}phenyl)imidazo[1,5-a]pyrazin-3-yl]bicyclo[2.2.2] octane-1-carboxylic acid] were 1490 nM and 0.38 nM.
For `CC1(C(=O)O)CCCC(c2nc(-c3ccc(C(=O)Nc4cc(C5CC5)ccn4)cc3)c3c(N)nccn23)C1` (stereo not drawn) [Example 153, 3-(8-amino-1-{4-[(4-cyclopropylpyridin-2-yl)carbamoyl]phenyl}imidazo[1,5-a]pyrazin-3-yl)-1-methylcyclohexane-carboxylic acid], the IC50 amounted to 2480 nM in the assay on HeLa cells (Homo sapiens, HeLa) and 2.6 nM in assay [1].
